Read-outs that look alike come from different tables or passages of the source.
What was measured:
primary rat hepatocytes [1] = assay: ROS generation in primary rat hepatocytes (DCFH-DA probe); type: cell-based; details: primary hepatocytes of DM rats, atorvastatin 10 μM; GSH 0.5 and 2 mM, N-Acetylcysteine 0.5 and 2 mM, gemfibrozil 10 and 50 μM, ketoconazole 2 μM
Protocol: (§1) Another subset of experimental rats (CON, HFD and DM rats) were used for the primary rat hepatocytes isolation. […] Primary hepatocytes were isolated from experimental rats in a modified two-step collagenase perfusion method as previously reported. An aliquot of the hepatocyte suspension (at a density of 2.5 × 10^5/ml) was seeded in collagen-precoated plates. Following 4-h incubation, the medium was replaced with 500 μl fresh cultured medium. Twenty-four hours after plating, the medium was removed and the hepatocytes were overlaid with BD matrigel (0.25 mg/ml) in feeding medium (DMEM containing […] dexamethasone and 1% ITS) and cultured for another 24 h at 37 °C in a humidified atmosphere containing 5% CO2 for following experiments.
(§2) ROS generation was simultaneously measured using DCFH-DA as a fluorescent probe.

primary rat hepatocytes [2] = assay: Hepatotoxicity in primary rat hepatocytes (MTT cell viability, LDH release); details: for effect on atorvastatin-induced cytotoxicity: primary hepatocytes of DM rats, atorvastatin 10 μM, GSH 0.5 and 2 mM, N-Acetylcysteine 0.5 and 2 mM, gemfibrozil 10 and 50 μM, ketoconazole 2 μM
Protocol: as §1, §2

HepG2 cells [3] = assay: Hepatotoxicity of atorvastatin in HepG2 cells (MTT); details: 10 μM, 24 h
Protocol: (§3) The cells were cultured in DMEM containing 10% FBS (fetal bovine serum), non-essential amino acids, antibiotics (100 IU/ml penicillin and 100 μg/ml streptomycin), 2 mM L-glutamine, and 3.7 g/L NaHCO3 in a humidified incubator of 5% CO2 and 95% air atmosphere at 37 °C.

HepG2 cells [4] = assay: Atorvastatin metabolism in HepG2 cells (formation of ortho-hydroxy atorvastatin); details: HepG2, ketoconazole 2 and 10 μM; atorvastatin 30 μM, 30 min
Protocol: as §3

[5] = system: normal rats and phenobarbital pre-treated rats; assay: Atorvastatin-induced hepatotoxicity in normal rats and rats pre-treated with phenobarbital; details: phenobarbital i.p. 80 mg/kg with atorvastatin 10, 20, 40 mg/kg for 10 days
Protocol: For normal rats, they were randomly divided into vehicle (CON) rats, low-dose treatment (AL) rats, middle-dose treatment (AM) rats and high-dose treatment (AH) rats (n = 5 for each group). CON rats orally received daily dose of vehicle. […] The serum biochemical parameters, liver weight and ROS levels were measured as described above.

[6] = phenobarbital i.p. 80 mg/kg
Protocol: Blood samples were collected under light ether anesthesia via the oculi chorioideae vein at 5, 10, 20, 30, 45, 60, 120, 240, 360, and 720 min after first dose and last dose. After 3 or 4 samplings, the appropriate amount of normal saline was administered to the rats via the tail vein to compensate for blood loss. The blood collected was mixed properly with the anticoagulant and centrifuged at 4000 rpm for 10 min. The plasma was separated and stored at −80 °C until drug analysis.
The pharmacokinetic parameters were calculated using noncompartmental analysis on Phenix WinNonlin 6.1 (Pharsight, St. Louis, MO). All values were expressed as mean ± S.D. Results were analyzed using one-way analysis of variance (ANOVA) followed by Tukey’s post hoc test. Differences among groups were determined by nonparametric test when necessary. Statistical significance was assumed at P < 0.05.

hepatic Cyp3a = assay: Activity and expression of hepatic Cyp3a in phenobarbital-treated rats; details: PB rats, phenobarbital i.p. 80 mg/kg
Protocol: as §1
Repaglinide (20 μM) and midazolam (10 μM) were used as probe substrates to identify the activities of SLCO1B1 and Cyp3a, respectively.
Total rat liver extract was prepared in RIPA lysis buffer containing 1 mM PMSF to measure protein levels of Cyp3a and SLCO1B1. Protein concentrations were measured by the BCA protein assay kit. 50 μg proteins were separated on a SDS-polyacrylamide gel electrophoresis and transferred onto polyvinylidene fluoride membranes (Millipore Corporation, Billerica, MA, USA).

hepatic SLCO1B1 = assay: Activity and expression of hepatic SLCO1B1 in phenobarbital-treated rats; type: in vivo, rat; details: PB rats, phenobarbital i.p. 80 mg/kg
[7] = DM-AL: diabetic rats, 10 mg/kg, 10 days
[8] = DM-AM: diabetic rats, 20 mg/kg, 10 days
[9] = diabetic rats, 10 and 20 mg/kg, 10 days
[10] = serum, DM-AL: diabetic rats, 10 mg/kg, 10 days
[11] = serum, DM-AM: 20 mg/kg, 10 days
[12] = serum, DM-AM: diabetic rats, 20 mg/kg, 10 days

Protocol for diabetic rats: Briefly, experimental rats were assigned randomly to three groups: control (CON) group (n = 5), high-fat diet (HFD) group (n = 5) and diabetic (DM) group (n = 20). The CON rats were fed on normal chow while both HFD rats and DM rats were fed on high-fat diet (TROPHIC Animal Feed High-tech Co. Ltd, Nantong, China). After six-week of dietary manipulation, DM rats intraperitoneally (i.p.) received a single dose of STZ (35 mg/kg).
The diabetic rats were randomly divided into four groups (n = 5 for each group). The first group served as control group (DM).
Following last dose, rats, fasted overnight, were anesthetized with diethyl ether and blood samples were collected for measurement of blood chemistry. Then, the animals were sacrificed; the liver samples were harvested for standard histology, hepatic biochemical measurement and Western blot.

For N[C@@H](CCC(=O)N[C@@H](CS)C(=O)NCC(=O)O)C(=O)O [GSH, Glutathione], the “effect on atorvastatin-induced production of ROS” value (shortened to “effect … of ROS”) (primary rat hepatocytes [1]) was “concentration-dependently reversed” and the “effect on atorvastatin-induced cytotoxicity” value (primary rat hepatocytes [2]) was “concentration-dependently reversed”.
For CC(=O)N[C@@H](CS)C(=O)O [N-Acetylcysteine], the “effect … of ROS” value (primary rat hepatocytes [1]) was “concentration-dependently reversed” and the “effect on atorvastatin-induced cytotoxicity” value (primary rat hepatocytes [2]) was “concentration-dependently reversed”.
Work on CC(C)c1c(C(=O)Nc2ccccc2)c(-c2ccccc2)c(-c2ccc(F)cc2)n1CC[C@@H](O)C[C@@H](O)CC(=O)O [atorvastatin, Atorvastatin calcium] yielded a Body weight (diabetic rats; DM-AL: diabetic rats, 10 mg/kg atorvastatin orally once daily for 10 days) of 269.3 ± 5.3 g, an FBG (diabetic rats; [7]) of 18.38 ± 1.75 mM and an FINS (diabetic rats; [7]) of 32.65 ± 2.15 mIU/L. The HOMA-IR (diabetic rats; [7]) was 27.56 ± 2.01, the “Liver weight (% of body weight)” value (diabetic rats; [7]) was 6.94 ± 0.95 % of body weight and the “Spleen weight (% of body weight)” value (diabetic rats; [7]) was 0.264 ± 0.027 % of body weight. The “liver weight (% of body weight) compared with DM rats” value (diabetic rats; DM-AM: 20 mg/kg, 10 days) was “almost doubled”, the Body weight (diabetic rats; DM-AM: diabetic rats, 20 mg/kg atorvastatin orally once daily for 10 days) was 250.8 ± 22.4 g and the FBG (diabetic rats; [8]) was 18.34 ± 1.60 mM. For the same compound, the FINS (diabetic rats; [8]) was 32.51 ± 4.45 mIU/L, the HOMA-IR (diabetic rats; [8]) was 26.92 ± 2.52 and the “Liver weight (% of body weight)” value (diabetic rats; [8]) was 10.60 ± 2.25 % of body weight. The “Spleen weight (% of body weight)” value (diabetic rats; [8]) was 0.392 ± 0.033 % of body weight, the “MDA levels in liver” value (diabetic rats; [9]) was “increased” and the “SOD, CAT, GSH-pX and SDH activities in liver” value (diabetic rats; [9]) was “dose-dependently lowered”. The histopathological damage scores (diabetic rats; liver, DM-AL (10 mg/kg) and DM-AM (20 mg/kg) rats) was “Higher”, the TC (diabetic rats; [10]) was 4.02 ± 0.71 mM and the TG (diabetic rats; [10]) was 5.40 ± 0.50 mM. For the same compound, the “AKP level compared with DM rats” value (diabetic rats; [11]) was “approximately doubled”, the “ALT level compared with DM rats” value (diabetic rats; [11]) was “approximately doubled” and the “AST level compared with DM rats” value (diabetic rats; [11]) was “approximately doubled”. For the same compound, the “DBIL level compared with DM rats” value (diabetic rats; [11]) was “almost tripled”, the “TBIL level compared with DM rats” value (diabetic rats; [11]) was “almost tripled” and the “level of Alb” value (diabetic rats; [11]) was “significant decrease”. The TC (diabetic rats; [12]) was 3.42 ± 0.52 mM, the TG (diabetic rats; [12]) was 3.75 ± 0.70 mM and the cell viability (HepG2 cells [3]) was “little affected”. For the same compound, the “cytotoxicity in primary hepatocytes of PB rats” value (primary rat hepatocytes [2]; phenobarbital pre-treated rats, 96 h) was “severe cytotoxicity”.
For Cc1ccc(C)c(OCCCC(C)(C)C(=O)O)c1 [gemfibrozil], the “effect … of ROS” value (primary rat hepatocytes [1]) was “concentration-dependently reversed” and the “effect on atorvastatin-induced cytotoxicity” value (primary rat hepatocytes [2]) was “concentration-dependently reversed”.
For CC(=O)N1CCN(c2ccc(OCC3COC(Cn4ccnc4)(c4ccc(Cl)cc4Cl)O3)cc2)CC1 (stereo not drawn) [ketoconazole, Ketoconazole], the “effect of co-incubation on atorvastatin metabolism” value (HepG2 cells [4]) was “concentration-dependently inhibited”.
With CCC1(c2ccccc2)C(=O)NC(=O)NC1=O [phenobarbital, Phenobarbital] the “effect of co-administration on atorvastatin hepatotoxicity” value [5] was “markedly potentiated”, the “effect on plasma exposure of atorvastatin in rats” value [6] was “decreased” and the “activities and expressions of hepatic Cyp3a” value (hepatic Cyp3a) was “significantly increased”. For the same compound, the “activities and expressions of hepatic SLCO1B1” value (hepatic SLCO1B1) was “significantly increased”.
